Data published in PMC7366380, “Discovery of a Potent and Selective Covalent Inhibitor and Activity-Based Probe for the Deubiquitylating Enzyme UCHL1, with Antifibrotic Activity” (Journal of the American Chemical Society, 2020).
pIC50: −log10 of the molar value.

Tests used:
USP19 = molecular target: T1, USP19 (Homo sapiens, UniProt O94966); assay: Biochemical DUB selectivity profiling assay: USP19; conditions: Ub-Lys-TAMRA 50 nM, buffer A; read-out: Biochemical IC50 range, USP19
T1 sequence (O94966 1-1318): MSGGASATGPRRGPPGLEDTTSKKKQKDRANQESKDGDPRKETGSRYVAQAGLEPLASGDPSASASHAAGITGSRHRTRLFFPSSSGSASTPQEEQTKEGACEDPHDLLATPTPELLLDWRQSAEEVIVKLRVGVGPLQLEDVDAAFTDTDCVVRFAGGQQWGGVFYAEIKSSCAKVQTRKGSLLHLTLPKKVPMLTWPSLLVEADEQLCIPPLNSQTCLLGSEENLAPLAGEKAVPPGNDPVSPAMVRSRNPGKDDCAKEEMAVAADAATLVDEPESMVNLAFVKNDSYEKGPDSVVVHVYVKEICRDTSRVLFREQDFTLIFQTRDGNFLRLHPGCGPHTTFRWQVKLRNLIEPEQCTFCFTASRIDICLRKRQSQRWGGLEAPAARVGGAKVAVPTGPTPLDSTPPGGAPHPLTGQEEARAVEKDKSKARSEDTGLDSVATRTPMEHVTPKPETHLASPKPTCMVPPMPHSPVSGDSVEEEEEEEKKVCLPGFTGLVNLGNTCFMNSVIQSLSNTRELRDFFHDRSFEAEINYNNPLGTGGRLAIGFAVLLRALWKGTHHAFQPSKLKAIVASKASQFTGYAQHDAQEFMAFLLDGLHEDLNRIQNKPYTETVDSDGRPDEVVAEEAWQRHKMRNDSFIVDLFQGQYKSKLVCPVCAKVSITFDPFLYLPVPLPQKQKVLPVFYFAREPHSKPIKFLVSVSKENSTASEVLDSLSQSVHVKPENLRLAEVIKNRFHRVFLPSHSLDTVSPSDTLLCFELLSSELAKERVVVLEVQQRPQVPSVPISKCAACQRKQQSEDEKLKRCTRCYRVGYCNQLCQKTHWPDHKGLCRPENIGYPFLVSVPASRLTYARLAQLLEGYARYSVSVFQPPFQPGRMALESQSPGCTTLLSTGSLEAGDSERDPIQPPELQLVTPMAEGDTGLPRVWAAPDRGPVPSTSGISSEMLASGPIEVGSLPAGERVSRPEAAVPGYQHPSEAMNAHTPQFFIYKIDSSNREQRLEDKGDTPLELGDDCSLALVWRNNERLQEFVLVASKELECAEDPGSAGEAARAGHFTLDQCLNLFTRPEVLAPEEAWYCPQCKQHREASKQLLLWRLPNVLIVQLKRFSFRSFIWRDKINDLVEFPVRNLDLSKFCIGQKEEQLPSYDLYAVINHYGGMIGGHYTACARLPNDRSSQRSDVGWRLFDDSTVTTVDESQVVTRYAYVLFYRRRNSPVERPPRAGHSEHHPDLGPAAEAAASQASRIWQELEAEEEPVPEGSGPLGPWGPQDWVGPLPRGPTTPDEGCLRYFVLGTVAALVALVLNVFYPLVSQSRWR
Description: DUB Assay Substrate Substrate
Buffer Concentration (nM) […]
Sepharose® 4B resin (GE Healthcare).
10 kDa molecular weight cut-off (MWCO)).
Fractions containing protein
Protein concentration was […]
reaction volume of 21 μL. […]
compound (final concentration 5 nM).
IC50 values were determined
Biochemical DUB selectivity profiling assays […]
in 40 µL total reaction volume.

USP8 = molecular target: T2, USP8 (Homo sapiens, UniProt P40818); assay: biochemical
T2 sequence (P40818 1-1118): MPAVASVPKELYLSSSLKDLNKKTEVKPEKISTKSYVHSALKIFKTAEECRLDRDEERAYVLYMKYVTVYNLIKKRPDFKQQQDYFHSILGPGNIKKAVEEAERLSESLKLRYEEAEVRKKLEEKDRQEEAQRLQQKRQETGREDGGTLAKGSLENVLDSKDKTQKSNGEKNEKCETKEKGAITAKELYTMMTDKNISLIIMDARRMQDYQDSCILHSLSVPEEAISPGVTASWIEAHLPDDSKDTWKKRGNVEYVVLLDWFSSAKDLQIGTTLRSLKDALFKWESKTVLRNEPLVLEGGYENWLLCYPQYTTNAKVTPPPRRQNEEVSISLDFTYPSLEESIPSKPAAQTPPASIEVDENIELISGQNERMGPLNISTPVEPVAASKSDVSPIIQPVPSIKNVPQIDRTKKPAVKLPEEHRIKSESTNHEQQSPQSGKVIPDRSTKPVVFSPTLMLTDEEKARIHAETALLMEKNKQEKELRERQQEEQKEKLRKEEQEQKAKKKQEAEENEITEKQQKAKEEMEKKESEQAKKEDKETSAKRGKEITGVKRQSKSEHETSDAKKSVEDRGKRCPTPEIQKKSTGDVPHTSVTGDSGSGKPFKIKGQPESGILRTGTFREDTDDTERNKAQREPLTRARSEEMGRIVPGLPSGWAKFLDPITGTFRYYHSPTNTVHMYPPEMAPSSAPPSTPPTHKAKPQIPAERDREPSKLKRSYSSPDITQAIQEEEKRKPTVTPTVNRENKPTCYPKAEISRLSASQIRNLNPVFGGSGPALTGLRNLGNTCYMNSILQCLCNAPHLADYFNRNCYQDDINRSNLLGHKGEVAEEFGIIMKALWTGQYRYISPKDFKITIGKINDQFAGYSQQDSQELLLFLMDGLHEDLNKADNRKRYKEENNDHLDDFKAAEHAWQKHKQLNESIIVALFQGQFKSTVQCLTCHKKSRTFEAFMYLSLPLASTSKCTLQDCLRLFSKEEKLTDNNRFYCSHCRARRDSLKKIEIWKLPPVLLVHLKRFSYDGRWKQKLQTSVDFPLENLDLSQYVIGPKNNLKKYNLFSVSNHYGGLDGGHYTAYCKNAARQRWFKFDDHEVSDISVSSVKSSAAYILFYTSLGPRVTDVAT

Row | SMILES | pIC50 (USP19) | pIC50 (USP8)
1 | N#CN1CCC[C@H]1C(=O)N1CCc2c(-c3c[nH]c4ncccc34)cccc21 [Compound 1] | < 5.00 | < 5.00
2 | C#Cc1cnc2[nH]cc(-c3cccc4c3CCN4C(=O)[C@@H]3CCCN3C#N)c2c1 [Compound 2] | < 5.00 | 
3 | N#CN1CCC[C@@H]1C(=O)N1CCc2c(-c3c[nH]c4ncccc34)cccc21 [Compound 3] | < 5.00 | < 5.00
4 | CC(=O)O/N=C1\C(=O)N(Cc2cc(Cl)ccc2Cl)c2ccc(Cl)cc21 [LDN-57444, reference compound] | < 5.00 | < 5.00
